In article PMC12040169 (PLOS Biology, 2025):
Values joined by “and” are separate entries in the source; they are usually repeats but may differ in a detail not shown here. Equal values may be shown once.

How the values were obtained:
[1] = system: HeLa; details: bulk resorufin, single well, 28.5 h, 10 µM, Bulk resorufin fluorescence
[2] = in vitro; details: human, hela cells, % viability

| SMILES | % viability [1] | viability at 28.5 h, 10 µM [2] | viability at 28.5 h, 10 µM ([2]; bulk resorufin, single well) |
| --- | --- | --- | --- |
| CN1CCN(S(=O)(=O)c2cccc3cccnc23)CC1 [CBK051241] | 93.2% | 106% | – |
| O=C(NCCc1ccccc1)[C@@H]1C=CCN1C(=O)c1cccs1 [CBK284320] | 92.9% | 95.2% | – |
| C[C@H](Cn1c(C(F)(F)F)cc2cccnc21)NC(=O)c1ccco1 [CBK282933] | 94.6% | 91.5% | – |
| FC(F)(F)c1cccc(-c2cnn(-c3ccncc3)n2)c1 [CBK112668] | 93.6% | 102% | – |
| C=CCNC(=O)[C@@H]1C=CCN1C(=O)c1ccccc1F [CBK283052] | 98.9% | 105% | – |
| Clc1ccc(CN2CCC(Oc3cncc(OCC4COc5ccccc5O4)n3)C2)cc1Cl (stereo not drawn) [CBK084361] | 90.5% | 107% | – |
| CC(C)[C@@H](Cn1nc(C2CC2)ccc1=O)NC(=O)C1CC1 [CBK284309] | 85.9% | 86.1% | – |
| Cn1nnc2cc(NC(=O)N3CC4(C)CC3CC(C)(C)C4)ccc21 (stereo not drawn) [CBK304389] | 95.3% | 94.6% | – |
| C[C@H]1CN2CCCC2CN1Cc1ccc(CN(C)C)cc1 (stereo partly drawn) [CBK285438] | 101% | 88.9% | – |
| C[C@@H]1CN2C[C@H](O)CC2CN1Cc1ccc2c3ccccc3n(C)c2c1 (stereo partly drawn) [CBK284554] | 102% | 91.5% | – |
| C[C@H](Cn1nc2c(cc1=O)CCCCC2)NC(=O)c1cccc(F)c1 [CBK284558] | 90% | 85.8% | – |
| CC[C@H](Cn1ncc2ccccc2c1=O)NC(=O)c1cccs1 [CBK284301] | 90.5% | 96.7% | – |
| O=C(O)CCCC(=O)N1CCN(Cc2ccc3c(c2)OCO3)CC1 [CBK074752] | 80.8% | 99.3% | – |
| Nc1nc(=O)c2cnc3ccc(Cl)cc3c2s1 [CBK288175] | 79.6% | 84.6% | – |
| C[C@H](Cn1nc2c(cc1=O)CCCCC2)NC(=O)c1ccco1 [CBK284544] | 88.3% | 84.9% | – |
| O=C(O)CCc1nn2c(-c3ccccc3)c(-c3ccccc3)nc2[nH]c1=O [CBK013564] | 94.1% | 86.5% | – |
| O=C(O)CCc1ccc(-c2cccs2)n1-c1cc(Cl)ccc1O [CBK131890] | 106% | 104% | – |
| C[C@@H]1CN2CCCC2CN1Cc1ccc2ccccc2n1 (stereo partly drawn) [CBK285408] | 104% | 101% | – |
| Cc1ccc(S(=O)(=O)Nc2ccsc2C(=O)N2CCOCC2)cc1 [CBK004570] | 107% | 99.9% | – |
| COc1ccc(-c2cc(C3CC3)nc(SCC(=O)O)c2C#N)cc1 [CBK262690] | 90.1% and 95% | 91.3% | – |
| CNC(=S)N1CCN(c2nsc3ccccc23)CC1 [CBK288515] | 83.2% | 83.5% | – |
| Cc1nn(C)c(N2CCNCC2)c1NC(=O)C1CCC1 [CBK045923T] | 96.2% | 91.8% | – |
| Nc1nc2cccnc2cc1-c1cccc(OCc2ccccc2)c1 [CBK081206] | 105% | 99.2% | – |
| O=C(CN1C(=O)[C@@H]2CCCN2C(=O)c2ccccc21)NCCc1ccccc1 [CBK286402] | 90% | 87.1% | – |

| SMILES | % viability [1] | viability at 28.5 h, 10 µM [2] | viability at 28.5 h, 10 µM ([2]; bulk resorufin, single well) |
| --- | --- | --- | --- |
| CC(=O)Nc1ccc(S(N)(=O)=O)c2ccccc12 [CBK288522] | 94% | 83.5% | – |
| O=C(NC1CCCCC1)[C@H]1C=CCN1C(=O)c1ccccc1F [CBK283334] | 98% | 85.6% | – |
| O=C(CSc1nc2ccccc2[nH]1)Nc1ccccc1 [CBK073089] | 91.6% | 110% | – |
| CSc1ccc(CN2CCN(Cc3ccc(Br)cc3)CC2)cc1 [CBK027856] | 96.4% | – | 79.2% |
| CCn1cc(CN2C[C@@H]3CCCN3C[C@@H]2CCSC)cn1 [CBK283181] | 106% | 86.9% | – |
| O=C(O)CCCCCN1C(=O)CC(c2ccc(Cl)cc2)CC1=O [CBK287245] | 102% | 104% | – |
| C[C@@H](Cn1c(=O)oc2ccccc21)NC(=O)Cc1ccsc1 [CBK284535] | 84.7% | 96.9% | – |
| Cc1c2c(=O)n(-c3ccccc3)[nH]c2cc(=O)n1CCc1ccccc1 [CBK269995] | 92.7% and 109% | 101% | – |
| CC(C)[C@@H](CO)Nc1nccnc1-c1cccc(C(=O)O)c1 [CBK036665] | 93% | 85.6% | – |
| CC(C)C(=O)N1CCC[C@H]1Cn1nc(-c2cccs2)ccc1=O [CBK285469] | 96.1% | 97.8% | – |
| C=CCNC(=O)[C@H]1C=CCN1S(=O)(=O)c1ccc(F)cc1 [CBK282320] | 89.7% | 83.5% | – |
| CC(C(=O)Nc1cncc(OC2CCNCC2)n1)c1ccccc1 (stereo not drawn) [CBK026733T] | 110% | 99.2% | – |
| O=C(O)CC1C(=O)NCCN1Cc1cccc(Oc2ccccc2)c1 (stereo not drawn) [CBK270023] | 103% | 91.4% | – |
| Nc1nn2c(c1Cc1c(Cl)cccc1Cl)OCCCC2 [CBK089335] | 86.2% | 91.8% | – |
| O=S(=O)(/C=C/c1ccncc1)NCc1ccc2c(c1)OCO2 [CBK018566] | 92.8% | 91.3% | – |
| C[C@H](Cn1nc2c(cc1=O)CCCCC2)NC(=O)c1ccc(F)cc1 [CBK284557] | 93.4% | 98.4% | – |
| N#CCCN(C(=O)NC(c1ccccc1)c1ccccc1)C1CCCCC1 [CBK156354] | 104% | 98.7% | – |
| CC(C)(C)OC(=O)N1CCC[C@@H]1C(=O)c1cccs1 [CBK284289] | 90.7% | 100% | – |
| CCOc1ccc(-c2ccnc(NC[C@@H]3CCCO3)n2)cc1C(=O)O [CBK306568] | 89.2% | 86.5% | – |
| Cn1cc(C(=O)N2C3CCC(C3)[C@@H]2COc2ccc(F)cc2)cn1 (stereo partly drawn) [CBK284605] | 112% | 93.7% | – |
| C[C@@H]1CN2CCCC2CN1Cc1ccc(N(C)C)cc1 (stereo partly drawn) [CBK285406] | 102% | 101% | – |
| COC(=O)[C@@H]1Cc2c([nH]c3ccccc23)[C@H]2C[C@H](NCCO)C[C@@H](c3ccccc3)N21 [CBK289167] | 97.8% | 94.8% | – |
| O=C(CN1C(=O)C2CCCCC2C1=O)Nc1ccccc1C(=O)O (stereo not drawn) [CBK264130] | 108% | 91.5% | – |
| Cc1ccc(CN2CC3CCCN3C[C@H]2C)o1 (stereo partly drawn) [CBK285407] | 104% | 87.1% | – |

| SMILES | % viability [1] | viability at 28.5 h, 10 µM [2] | viability at 28.5 h, 10 µM ([2]; bulk resorufin, single well) |
| --- | --- | --- | --- |
| CC(C)NC(=O)n1nccc1-c1cc(-c2ccccc2)no1 [CBK086581] | 82.6% | 102% | – |
| C[C@H]1CN2CCCC2CN1Cc1c(F)cccc1F (stereo partly drawn) [CBK285451] | 102% | 89.8% | – |
| CCN(Cc1ccccc1)C(=O)NCc1cc(C)on1 [CBK155211] | 92.6% | 106% | – |
| COC(=O)c1ccccc1OC[C@@H]1CN(C(=O)C(C)(C)N)C[C@H]1c1cc2ccccc2o1 [CBK022525T] | 92.2% | 106% | – |
| Fc1ccc(COc2cc(N3CCCC3)ncn2)cc1 [CBK115675] | 96.4% | 109% | – |
| CC(C)[C@H](Cn1nc(C2CC2)ccc1=O)NC(=O)Cc1cccs1 [CBK282368] | 88.6% | 79.7% | – |
| COc1ccc(CN2CCCN(c3nccc(OCCN4CCOCC4)n3)CC2)cc1 [CBK083932] | 108% | 104% | – |
| COc1cc(CNCc2cccnc2)cc(Br)c1OCc1ccc(Cl)cc1 [CBK074596C] | 95.5% | 107% | – |
| CC(=O)c1sc(NC(=O)c2ccc(Cl)cc2)nc1C [CBK087686] | 88.4% | 86.7% | – |
| Cc1nnc2c(N3CCNCC3)nc3ccccc3n12 [CBK270224] | 75.4% | 89% | – |
| C=CCNC(=O)[C@@H]1C=CCN1C(=O)c1ccc(OC)cc1 [CBK284317] | 76.8% | 95.4% | – |
| Cc1ccc(CN2CCNC(=O)C2CC(=O)O)o1 (stereo not drawn) [CBK269966] | 91.7% | 91.8% | – |
| O=C(CN1C(=O)[C@@H]2CCCN2C(=O)c2ccccc21)NCc1ccccc1 [CBK286318] | 89.5% | 98.6% | – |
| CCN(CC)C(=O)Cn1c([C@@H]2CCCO2)cc2cccnc21 [CBK282283] | 90.4% | 105% | – |
| O=C(CN1C(=O)[C@H]2CCCN2C(=O)c2ccccc21)N1CCCCC1 [CBK282435] | 80.4% | 90.6% | – |
| CCCOc1cccc(C(=O)Nc2cccc(-c3nc4ncccc4o3)c2C)c1 [CBK072326] | 106% | 97.9% | – |
| O[C@@H]1C[C@H]2CN(Cc3ccsc3)[C@@H](Cc3ccccc3)CN2C1 [CBK285376] | 95.8% | 91.9% | – |
| CC[C@H](CO)NC(=O)c1coc(COc2ccc3sc(C)nc3c2)n1 [CBK306602] | 93.5% | 85.3% | – |
| O=C(CN1C(=O)[C@H]2CCCN2C(=O)c2ccccc21)Nc1ccccc1-c1ccccc1 [CBK286321] | 94.1% | 93.9% | – |
| C[C@H](Cn1nc2c(cc1=O)CCCCC2)NC(=O)c1ccccc1F [CBK284547] | 91.5% | 89.5% | – |
| Cc1ccc(S(=O)(=O)N2CCN(c3ccc(Cl)c(Cl)c3)CC2)c(C)c1 [CBK099298] | 118% | 111% | – |
| O=C(CC1Nc2ccccc2NC1=O)Nc1ccccc1 (stereo not drawn) [CBK265365] | 103% | 99.8% | – |
| Cc1cc(-c2cncc(NCCc3c[nH]c4ccccc34)n2)cc(C)c1O [CBK107896] | 83% | 101% | – |
| CC1Cc2ccccc2N1c1ncnc2nc[nH]c12 (stereo not drawn) [CBK287388] | 66.9% | 66.8% | – |
